According to patent publication US20140288113A1, “Extended Release Compositions Comprising Hydrocodone And Acetaminophen For Rapid Onset And Prolonged Analgesia That May Be Administered Without Regard To Food” (MALLINCKRODT LLC, priority 2013, published 2014):

Experiments:
[1] = system: hepatic GSH; experiment: Hepatic glutathione depletion after acetaminophen in Swiss mice (Brzeznicka and Piotrowski 1989); format: in vivo
Text: The bioequivalence level is 95%.

[2] = system: hepatic GSH; details: mice, cited from earlier work

CC(=O)Nc1ccc(O)cc1 [acetaminophen]
safety exposure ratio compared with human levels (1.3 g/day, 70 kg) ([1]; Swiss mice 400 mg/kg): 22 fold | safety exposure ratio compared with human levels (1.3 g/day, 70 kg) ([1]; Swiss mice 600 mg/kg): 32 fold | time after administration at which circulating hepatic GSH changes began ([2]; 100 mg/kg to 600 mg/kg): ≤ 15 min | time after injection of minimum GSH level ([2]; all dose groups): 2 h
